PMC12518996 (Frontiers in Pharmacology, 2025)

Experiments:
human liver microsomes = assay: Metabolic profiling in human liver microsomes; assay type: in vitro ADME; conditions: trazodone 8 μM, 40 min incubation
Experimental: (§1) The metabolic profile of trazodone was determined using in vitro incubations with rat and human liver microsomes, hepatocytes, and rat plasma samples. […] Microsomal incubations were conducted with pooled human and rat liver microsomes (Celsis IVT) using 0.6 mg/mL microsomal protein in 0.1 M phosphate buffer (pH 7.4). NADPH (1 mM) was added as a cofactor to initiate phase I metabolic reactions. Reactions were performed at 37 °C for 40 min with gentle shaking.
(§2) Processed supernatants (4 µL) were injected onto a Thermo U3000 UHPLC system coupled to a Thermo Q-Exactive Orbitrap MS equipped with a PDA detector. […] The Orbitrap operated in positive ESI mode (sheath/aux/sweep N2 55/8/4 units; capillary 3.0 kV, 370 °C; auxiliary heater 550 °C) with full-scan m/z 100–1,000 at 35,000 FWHM (m/z 200) and DDI-MS/MS at 17,500 FWHM (7 Hz acquisition; IT […]; HCD 40 eV). External mass calibration and a 5 ppm extraction window were applied, and data were processed in Xcalibur 3.0.63/Compound Discoverer 1.0.

rat hepatocytes = assay: Metabolic profiling in rat hepatocytes; assay type: in vitro ADME; conditions: trazodone 8 μM, 120 min incubation
Experimental: (§3) For hepatocyte incubations, pooled cryopreserved human hepatocytes (20-donor mix, Celsis) and male Sprague-Dawley rat hepatocytes (12-donor mix, Bioreclamation IVT) were used. Each incubation contained 1 million viable cells/mL in Celsis InVitro HI medium, at a pH of 7.4, and was conducted at 37 °C for 120 min under gentle agitation to facilitate metabolic activity.
as §2

CYP2D18 = assay: Metabolite formation by recombinant rat CYP2D18; assay type: in vitro ADME; conditions: trazodone 4 μM; NADPH; 37 °C, 40 min
Experimental: (§4) To confirm the role of individual CYP isoforms in metabolizing trazodone, recombinant human and rat CYP enzymes were employed in separate incubations. […] Each reaction was terminated with acetonitrile, centrifuged, and the supernatant was analyzed by identical UHPLC-Orbitrap setup outlined in §2.2, allowing direct comparison of metabolite spectra across all in-vitro systems. […] This procedure helped confirm the contributions of individual isoforms to specific biotransformation reactions.

human hepatocytes = assay: Metabolic profiling in human hepatocytes; assay type: in vitro ADME; conditions: trazodone 8 μM, 120 min incubation
Experimental: as §3, §2

rat liver microsomes = assay: Metabolic profiling in rat liver microsomes; assay type: in vitro ADME; conditions: trazodone 8 μM, 40 min incubation
Experimental: as §1, §2

CYP2E1 = CYP2E1 (Homo sapiens, UniProt P05181); assay: Metabolite formation by recombinant human CYP2E1; assay type: in vitro ADME; conditions: trazodone 4 μM; NADPH; 37 °C, 40 min
Experimental: as §4

MAOB = target: T1, MAOB (Homo sapiens, UniProt P27338); assay: Metabolite formation by recombinant human MAOB; assay type: in vitro ADME; conditions: trazodone 4 μM; 37 °C, 40 min
T1 sequence (P27338 1-520): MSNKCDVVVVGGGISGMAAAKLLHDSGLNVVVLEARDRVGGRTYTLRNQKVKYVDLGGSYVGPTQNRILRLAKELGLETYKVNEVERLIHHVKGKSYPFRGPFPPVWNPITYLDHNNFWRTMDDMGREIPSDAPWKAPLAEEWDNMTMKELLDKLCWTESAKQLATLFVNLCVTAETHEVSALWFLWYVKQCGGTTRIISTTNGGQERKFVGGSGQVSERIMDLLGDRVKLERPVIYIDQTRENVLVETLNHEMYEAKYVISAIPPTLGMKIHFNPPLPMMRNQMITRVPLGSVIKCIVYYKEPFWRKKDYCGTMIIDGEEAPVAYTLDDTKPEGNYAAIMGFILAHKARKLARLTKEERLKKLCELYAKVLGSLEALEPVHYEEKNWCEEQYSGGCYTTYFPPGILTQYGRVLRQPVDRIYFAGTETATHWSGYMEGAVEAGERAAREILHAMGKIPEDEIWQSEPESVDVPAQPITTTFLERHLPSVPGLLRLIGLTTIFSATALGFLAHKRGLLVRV

MAOA = target: T2, MAOA (Homo sapiens, UniProt P21397); assay: Metabolite formation by recombinant human MAOA; assay type: in vitro ADME; conditions: trazodone 4 μM; 37 °C, 40 min
T2 sequence (P21397 1-527): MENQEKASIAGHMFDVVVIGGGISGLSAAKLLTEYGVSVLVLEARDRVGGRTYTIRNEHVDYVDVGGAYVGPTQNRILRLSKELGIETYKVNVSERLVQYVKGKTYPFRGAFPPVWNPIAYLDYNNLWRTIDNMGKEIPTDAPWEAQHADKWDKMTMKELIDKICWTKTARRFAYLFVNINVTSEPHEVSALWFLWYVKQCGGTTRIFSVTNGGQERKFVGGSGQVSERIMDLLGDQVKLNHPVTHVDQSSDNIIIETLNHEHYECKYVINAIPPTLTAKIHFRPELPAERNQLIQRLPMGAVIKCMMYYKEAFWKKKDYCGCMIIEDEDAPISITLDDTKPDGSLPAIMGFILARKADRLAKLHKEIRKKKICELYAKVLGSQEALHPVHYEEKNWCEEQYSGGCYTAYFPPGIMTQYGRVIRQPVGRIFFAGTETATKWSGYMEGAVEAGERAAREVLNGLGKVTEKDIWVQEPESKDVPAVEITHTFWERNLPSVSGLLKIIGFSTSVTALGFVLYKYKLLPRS

CYP1A2 [1] = target: T3, CYP1A2 (Homo sapiens, UniProt P05177); assay: Metabolite formation by recombinant human CYP1A2; assay type: in vitro ADME; conditions: trazodone 4 μM; NADPH; 37 °C, 40 min
T3 sequence (P05177 1-516): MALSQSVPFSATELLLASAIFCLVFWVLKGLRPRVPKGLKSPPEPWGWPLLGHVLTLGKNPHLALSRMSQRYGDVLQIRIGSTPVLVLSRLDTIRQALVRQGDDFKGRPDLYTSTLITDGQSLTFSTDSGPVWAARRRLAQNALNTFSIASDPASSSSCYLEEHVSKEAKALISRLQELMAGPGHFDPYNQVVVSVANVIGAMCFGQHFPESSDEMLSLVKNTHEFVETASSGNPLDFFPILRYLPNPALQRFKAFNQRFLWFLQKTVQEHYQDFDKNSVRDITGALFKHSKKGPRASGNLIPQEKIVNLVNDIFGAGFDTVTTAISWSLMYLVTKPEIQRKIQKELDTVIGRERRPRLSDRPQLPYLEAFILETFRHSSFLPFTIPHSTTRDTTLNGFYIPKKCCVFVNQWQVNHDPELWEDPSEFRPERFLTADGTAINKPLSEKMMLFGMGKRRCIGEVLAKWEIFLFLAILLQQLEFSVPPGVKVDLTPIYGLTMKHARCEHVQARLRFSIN
Experimental: as §4

CYP1A2 [2] = target: T3, CYP1A2; conditions: human hepatocytes; probe phenacetin; 0.1-100 μM
CYP3A4 = CYP3A4 (Homo sapiens, UniProt P08684); conditions: human hepatocytes; probe midazolam; 0.1-100 μM
Chain of CYP3A4 (P08684 whole entry): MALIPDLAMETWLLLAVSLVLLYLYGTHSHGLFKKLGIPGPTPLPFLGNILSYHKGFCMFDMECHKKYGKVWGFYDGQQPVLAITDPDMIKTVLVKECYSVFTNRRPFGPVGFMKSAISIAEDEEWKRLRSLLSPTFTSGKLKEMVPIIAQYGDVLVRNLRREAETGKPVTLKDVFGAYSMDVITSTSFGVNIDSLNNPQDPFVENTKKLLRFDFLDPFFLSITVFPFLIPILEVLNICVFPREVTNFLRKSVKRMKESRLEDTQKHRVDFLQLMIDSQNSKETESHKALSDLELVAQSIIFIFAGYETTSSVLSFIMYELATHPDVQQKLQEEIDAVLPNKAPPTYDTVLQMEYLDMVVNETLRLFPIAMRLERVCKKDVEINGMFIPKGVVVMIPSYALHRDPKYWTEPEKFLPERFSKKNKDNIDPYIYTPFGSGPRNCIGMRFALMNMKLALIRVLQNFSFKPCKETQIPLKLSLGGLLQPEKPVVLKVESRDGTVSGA

Chain of CYP2E1 (P05181 whole entry): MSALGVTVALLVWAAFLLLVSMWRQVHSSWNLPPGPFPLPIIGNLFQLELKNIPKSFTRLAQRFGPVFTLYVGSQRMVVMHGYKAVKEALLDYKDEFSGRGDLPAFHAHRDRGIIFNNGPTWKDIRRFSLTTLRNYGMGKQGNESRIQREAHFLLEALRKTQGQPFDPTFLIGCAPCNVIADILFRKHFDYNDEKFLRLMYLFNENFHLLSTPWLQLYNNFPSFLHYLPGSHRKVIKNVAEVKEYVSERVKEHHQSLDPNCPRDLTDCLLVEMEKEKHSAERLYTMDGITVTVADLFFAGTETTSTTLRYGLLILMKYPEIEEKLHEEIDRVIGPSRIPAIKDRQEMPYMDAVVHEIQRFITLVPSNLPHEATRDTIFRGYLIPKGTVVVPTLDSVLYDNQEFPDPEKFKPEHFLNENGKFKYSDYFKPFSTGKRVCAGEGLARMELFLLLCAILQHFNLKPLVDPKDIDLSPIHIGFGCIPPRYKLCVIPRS

Row | SMILES | relative abundance (% of total LC-MS signal), Liver microsomes Human (%) (human liver microsomes) | relative abundance (% of total LC-MS signal), Hepatocytes Rat (%) (rat hepatocytes) | Formation of trazodone phase I metabolite by recombinant rat CYP2D18 (as LC/MS peak areas) (CYP2D18) | relative abundance (% of total LC-MS signal), Hepatocytes Human (%) (human hepatocytes) | relative abundance (% of total LC-MS signal), Liver microsomes Rat (%) (rat liver microsomes) | Formation of trazodone phase I metabolite by recombinant human CYP2E1 (as LC/MS peak areas) (CYP2E1) | Formation of trazodone phase I metabolite by recombinant human MAOB (as LC/MS peak areas) (MAOB) | Formation of trazodone phase I metabolite by recombinant human MAOA (as LC/MS peak areas) (MAOA) | Formation of trazodone phase I metabolite by recombinant human CYP1A2 (as LC/MS peak areas) (CYP1A2 [1]) | IC50 value (µM), CYP1A2 (CYP1A2 [2]) | IC50 value (µM), CYP3A4 (CYP3A4)
1 | O=c1n(CCCN2CCNCC2)nc2ccccn12 [Metabolite M15] | 0.3% | 0.7% | 134 | 0.2% | 0.8% | 0 | 0 | 0 |  |  | 
2 | O=c1n(CCCO)nc2ccccn12 [Metabolite M20] | 2.9% | 0.9% | 240 | 0.9% | 1.4% | 0 | 0 | 0 |  |  | 
3 | Clc1cccc(N2CCNCC2)c1 [mCPP, m-chlorophenylpiperazine] |  |  | 1962 |  |  | 16 | 20 | 28 | 266 | inactive | inactive
